Data taken from ChEMBL document CHEMBL1201862, “PubChem BioAssay data set” (2004).
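1) Cells in 96-well plates. 2) Compound, 48 h, 5 concentrations. 3) Linear interpolation between surrounding doses. 4) Unreached endpoint = highest concentration. The concentration for 50% growth inhibition is given as GI50.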 Calls of active or inactive are those of the source. Rule as the data show it: active = GI50 up to about 1.1 µM and inactive = higher.

Columns and labels:
Assay in all cases: inhibition of tumour cell growth, NCI panel, 48 h
786-0 = system: 786-0
BT-549 = system: BT-549
Hs-578T = system: Hs-578T
DMS-114 = system: DMS-114
DMS-273 = system: DMS-273
LXFL 529 = system: LXFL 529
RXF 631 = system: RXF 631
XF498 = system: XF498
SNB-78 = system: SNB-78

CC1=C[C@@H]2[C@@H](CC(CO)=C[C@H]3[C@@H]4C(C)(C)[C@]4(OCC(C)C)[C@H](OCC(C)C)[C@@H](C)[C@]23O)C1=O
GI50 (786-0): 1.47 µM (inactive) | GI50 (BT-549): 1.14 µM (inactive) | GI50 (Hs-578T): 0.9 µM (active)

N#Cc1c(N)nc(Nc2cccc3ccccc23)c(C#N)c1C#N
GI50 (Hs-578T): 2.43 µM (inactive)

COC(=O)C(NC(=O)c1ccccc1)C(c1c(O)cc(O)cc1O)P(=O)(OC)OC (configuration not stated)
GI50 (DMS-114): > 100 µM (inactive) | GI50 (DMS-273): 42.5 µM (inactive) | GI50 (LXFL 529): 54 µM (inactive) | GI50 (RXF 631): > 100 µM (inactive) | GI50 (XF498): > 100 µM (inactive)

COC(=O)CCC(=O)c1ccc2c(c1)CCC2
GI50 (786-0): > 100 µM (inactive) | GI50 (Hs-578T): > 100 µM (inactive)

O=C1C[C@@H]2[C@@H](C=CC23CCCC3)N1O
GI50 (786-0): > 100 µM (inactive) | GI50 (DMS-114): > 100 µM (inactive) | GI50 (DMS-273): > 100 µM (inactive) | GI50 (LXFL 529): > 100 µM (inactive) | GI50 (SNB-78): > 100 µM (inactive)

O=S(=O)(N=S(c1ccccc1)c1ccccc1)c1ccccc1
GI50 (786-0): > 100 µM (inactive) | GI50 (BT-549): > 100 µM (inactive)

N#CCCN(CCC#N)c1ccc(C(=N/c2ccc(Cl)cc2)/N=N/c2ccc(Cl)cc2)cc1
GI50 (786-0): 18.3 µM (inactive) | GI50 (BT-549): 14 µM (inactive) | GI50 (Hs-578T): 19.4 µM (inactive)

NC(CCCCO)C(=O)O (configuration not stated)
GI50 (BT-549): > 100 µM (inactive) | GI50 (Hs-578T): > 100 µM (inactive)

C=C1C(=O)O[C@@H]2[C@H](O)[C@@H](C)[C@@H]3C=CC(=O)[C@@]3(C)[C@H](OC(=O)C=C(C)C)[C@H]12
GI50 (DMS-114): 2.4 µM (inactive) | GI50 (DMS-273): 1.48 µM (inactive) | GI50 (XF498): 1.24 µM (inactive)

O=S(O)CCCCCSSSCCCCCS(=O)O
GI50 (LXFL 529): 11.4 µM (inactive) | GI50 (SNB-78): 45.6 µM (inactive) | GI50 (XF498): 5.32 µM (inactive)

Nc1nc(=O)c2c([nH]1)NCC(CNc1ccc(C(=O)N[C@@H](CCC(=O)O)C(=O)O)cc1)N2C=O (some centres not stated) [LEUCOVORIN CALCIUM]
GI50 (DMS-114): > 125 µM (inactive) | GI50 (DMS-273): > 125 µM (inactive) | GI50 (SNB-78): > 125 µM (inactive)

CCCCCCCCCCCCCCCCCCOP(=O)([O-])OCC[N+](C)(C)C [OCTADECYLPHOSPHONOCHOLINE]
GI50 (BT-549): 1.22 µM (inactive) | GI50 (DMS-114): 13.6 µM (inactive) | GI50 (DMS-273): 1.74 µM (inactive) | GI50 (SNB-78): 10.2 µM (inactive) | GI50 (XF498): 12.4 µM (inactive)
